# Patent US20060166934A1, “Composition comprising phytosphingosine derivatives for apoptosis induction” (Tae-Yoon Kim, priority 2002, published 2006)
# What was measured:
# [1] = system: Th1 cells activation against allogenic cells (PBMC); assay: Reactions among allogenic cells, Th1 cells activation, MTT assay; assay type: cell-based, human; conditions: FIG. 5
# Description: Whether the composition of the present invention has a suppressive effect on the Th1 cells activation by allogenic cells in immune reation was examined.
# PBMC obtained from different volunteers as described in the above 5 were used for responder cells and stimulator cells respectively. PBMC for stimulator cells were used after X-ray irradiation (3000 rad) to inhibit the proliferation of stimulator cells.
# (§1) Each 2×10^5 responder cells and stimulator cells were mixed with each other and cultured for 5 days on the 96-well plate. And RPMI with 10% of serum was used as a medium.
# (§2) The above cells were cultured for 24 hours in the presence of 1, 10, 50 and 100 μM of NAPS, TAPS, and PS to examine the proliferation of the cells.
# (§3) C2-ceramide was used as control.
# HaCaT cells [2] = assay: TUNEL assay, induction of apoptosis; assay type: cell-based, human; conditions: for cell death (TUNEL): 10 μM and 30 μM, 24 hours, FIG. 6; for time after treating at which apoptosis is induced: 30 μM, FIG. 7
# Description: Induction of apoptosis of HaCaT cells by the compositions of the present invention is observed in the TUNEL-TdT-mediated dUTP nick end labeling-assay by using in situ cell death detection kit, POD (Enzo, 1684817, Boeringer Mannhein).
# In the TC chamber (Lab-TEK chamber Slide w/cover Permanox Slide sterile 1 well, 177410), 1×10^6 HaCaT cells are seeded and cultured on the DMEM medium for longer than 18 hours and treated with phytosphingosine derivatives. The cells are fixed 24 hours after treating with drugs, and the endogenous peroxidase is blocked with a blocking solution (3% H2O2 in MeOH), and permeation of cells is increased by using a permeabilization solution (0.1% Triton X-100 in 0.1% sodium citrate). Then apoptotic cells are labeled by using the mixture of tunnel reaction and are colored by using the DAB substrate (DAKO, K3465). Colored cells are observed by using a microscope.
# [3] = system: human umbilical vein endothelial cells (HUVEC); assay: MTT assay, cytotoxicity in HUVEC; assay type: cell-based; conditions: for Cell viability: HUVEC, con = 100, in %
# Description: (§4) Firstly, the cytotoxicity is measured by the MTT assay. Phytosphingosine (PS), phytosphingosine-HCl (PS-HCl), C6-phytosphingosine (C6-PS), CLA-phytosphingosine (CLA-PS), tetraacetyl phytosphingosine (TAPS), and N-acetyl phytosphingosine (NAPS) are dissolved into DMSO to have the final concentration of 1-100 μM.
# (§5) In order to study the effects of the compositions of the present invention on the cytotoxicity in the human keratinocyte cell line HaCaT cells, the cell viability is analyzed by the MTT (3-[4,5-dimethylthiazol-2-yl]-2,5-diphenyltetrazolium bromide) assay. HaCaT cells are supplied by Professor N. Fuseng of German Cancer Research in Germany. HaCaT cells are seeded in a density of 1×10^6 cells in a […] and cultured in DMEM (Dulbecco's Modified Eagle Medium) containing 10% fetal bovine serum (FBS, GIBCO), 100 units/ml penicillin, and 100 μg/ml streptomycin for 48 hours. They are treated with trypsin and 1-2×10^4 cells per well are seeded again in a 96-well plate by using a serum-free culture medium, about 3 hours after which they are cultured by treatment with phytosphingosine derivatives. After they are cultured for 24 hours, the MTT reagent is added at a concentration of 2 mg/ml, cultured for 4 hours, suspended in DMSO after removing the culture medium completely in order to measure O.D. at 540 nm. C2-ceramide is used for comparison.
# The MTT assay is used for the above purpose. Primary human umbilical vein endothelial cells are cultured from the human umbilical vein. The method of cell culture and the MTT assay are the same as those in the above. C2-ceramide is used for comparison.
# [4] = system: A431 cells, human skin cancer cell line; assay: MTT assay, cytotoxicity in human skin cancer cell line; assay type: cell-based; conditions: for Cell viability: A431, con = 100, in %
# Description: as §4, §5
# In order to study the effects of the compositions of the present invention on the cytotoxicity in A431 cells, human skin cancer cell line, the MTT assay is used. The method of cell culture and MTT assay are the same as those in the above method. C2-ceramide is used for comparison.
# [5] = system: HaCaT cells human keratinocyte cell line; assay: MTT assay, combined administration with Vit D3 or calcipotriol; assay type: cell-based
# Description: In order to study the synergistic effect in the cytotoxicity when the compositions of the present invention are administered in combination with Vit D3 or calcipotriol, the cell viability is analyzed by MTT assay method in HaCaT cells human keratinocyte cell line.
# To HaCaT cells, 1 μM of Vit D3 or calcipotriol, or 10 μM each of NAPS and TAPS, is administered singly or in combination with each other, and they are cultured for 24 hours. And the effects of these drugs on the cytotoxicity according to the single or combined administration are observed by MTT assay. C2-ceramide is used for comparison.
# HaCaT cells [6] = assay: MTT assay, combined treatment with UVB irradiation; assay type: cell-based, human; parameters: Cell viability: unit not given here; conditions: for cytotoxicity: 10 μM only; for Cell viability: HaCaT
# Description: In order to study the synergistic effect in the cytotoxicity by the cotreatment with administration of the compositions of the present invention and with UVB irradiation, the cell viability is analyzed by MTT assay method in HaCaT cells. On a 100-mm dish, 1×10^6 HaCaT cells are seeded and cultured in DMEM containing 10% fetal bovine serum, 100 units/ml penicillin, and 100 μg/ml streptomycin for 48 hours. They are treated with trypsin, and 1-2×10^4 cells per well are seeded on a 96-well plate again by using a serum-free medium, which is removed after about 3 hours. HaCaT cells are washed with PBS three times, and 3.5 ml of PBS per plate is added. It is then irradiated with 200 J/m^2 of UVB. After irradiation, the medium is replaced with a DMEM medium. Then it is treated with the phytosphingosine derivatives of the present invention, and cultured for 24 hours. After 2 mg/ml of the MTT reagent is added, it is cultured for 4 hours. The medium is removed completely, the cells are suspended in DMSO, and O.D. is measured at 540 nm.
# Th1 cells activation = assay: Mixed leukocyte reaction (MLR), Th1 cells activation by TNBSO3, MTT assay; assay type: cell-based, mice; conditions: MLR with TNBSO3-conjugated stimulator cells, FIG. 4
# Description: Whether the composition of the present invention has a suppressive effect on the Th1 cells activation which isolate […], IL-12, etc. by reacting with TNBSO3 […] was examined.
# The mononuclear cells obtained from spleen of mice as described the above 4 were used for responder cells, and TNBSO3-conjugated cells were used for stimulator cells. The stimulator cells were obtained as follows:
# The mononuclear cells were adjusted to be 2×10^7 cells/ml in PBS and the same volume of 20 mM TNBSO3 was added and incubated at 37° C. for 10 min in the dark state. After incubation, the cells wrer washed three times with PBS.
# as §1, §2, §3
molecule,measurement,setting,value
"CCCCCCCCCCCCCC[C@@H](O)[C@@H](O)[C@H](CO)NC(C)=O [NAPS, N-acetyl phytosphingosine]",concentration showing a suppressive effect on Th1 cells activation against allogenic cells,[1],50 μM
same,cell death (TUNEL),HaCaT cells [2],most significant effect of cell death
same,time after treating at which apoptosis is induced,HaCaT cells [2],4 h
same,cytotoxicity,"[3]; human, 24 h, 30 μM",86-91%
same,cytotoxicity,"[4]; human, 24 h, 50 μM",95-98%
same,Cell viability,"[5]; human, 24 h, 10 µM",86 ± 2
same,cytotoxicity,"[5]; human, 24 h, 10 µM",14%
same,cytotoxicity,HaCaT cells [6]; no UVB,33%
same,concentration showing a suppressive effect on Th1 cells activation,Th1 cells activation,50 µM
tetraacetyl phytosphingosine [TAPS],suppressive effect on Th1 cells activation against allogenic cells,[1]; 50 μM,suppress completely
same,concentration showing a suppressive effect on Th1 cells activation against allogenic cells,[1],50 μM
same,cell death (TUNEL),HaCaT cells [2],most significant effect of cell death
same,time after treating at which apoptosis is induced,HaCaT cells [2],4 h
same,Cell viability,[3]; 3.5 μM,47 ± 8.4
same,Cell viability,[3]; 7 μM,22 ± 1.9
same,Cell viability,[3]; 15 μM,15 ± 0.7
same,Cell viability,[3]; 30 μM,9 ± 0.5
same,Cell viability,[4]; 3 μM,113 ± 11.2
same,Cell viability,[4]; 10 μM,83 ± 13.9
same,Cell viability,[4]; 30 μM,12 ± 1.7
same,Cell viability,[4]; 50 μM,5 ± 1.2
same,cytotoxicity,[5]; 10 μM combined application with Vit D3,66%
same,cytotoxicity,[5]; 10 μM combined application with calcipotriol,64%
same,Cell viability,"[5]; 10 μM combined with Vit D3 (1 μM), 24 hours, HaCaT, in %",34 ± 4
same,Cell viability,"[5]; 10 μM combined with calcipotriol (1 μM), 24 hours, HaCaT, in %",36 ± 8
same,cytotoxicity,[5]; 10 μM single administration,24%
same,Cell viability,"[5]; 10 μM singly, 24 hours, HaCaT, in %",76 ± 2
same,Cell viability,"HaCaT cells [6]; 1 μM + UVB 200 J/m^2, 24 hours",27 ± 7.1
same,Cell viability,"HaCaT cells [6]; 1 μM, no UVB, 24 hours",111 ± 7.0
same,Cell viability,"HaCaT cells [6]; 3 μM + UVB 200 J/m^2, 24 hours",27 ± 3.9
same,Cell viability,"HaCaT cells [6]; 3 μM, no UVB, 24 hours",97 ± 10.0
same,Cell viability,"HaCaT cells [6]; 5 μM + UVB 200 J/m^2, 24 hours",16 ± 3.2
same,Cell viability,"HaCaT cells [6]; 5 μM, no UVB, 24 hours",83 ± 8.0
same,Cell viability,"HaCaT cells [6]; 10 μM + UVB 200 J/m^2, 24 hours",2 ± 0.1
same,cytotoxicity,HaCaT cells [6]; no UVB,57%
same,Cell viability,"HaCaT cells [6]; 10 μM, no UVB, 24 hours",43 ± 4.0
same,concentration showing a suppressive effect on Th1 cells activation,Th1 cells activation,10 µM
